According to publication PMC7377239, “Cardiovascular Effects of Polychlorinated Biphenyls and Their Major Metabolites” (Environmental Health Perspectives, 2020):

How the values were obtained:
[1] = tested on: iPSC-CMs, iPSC-ECs and HUVECs phenotypes; test: ToxPi 2.0 integration of POD values and physicochemical descriptors; design: species or system human; details: ToxPi-scaled (0-1) score; for huvec.cyto.24hr / huvec.mito.24hr / huvec.mitoint.24hr / huvec.nma.24hr / huvec.tc.24hr / huvec.mtl.18hr / huvec.tlps.18hr / huvec.tta.18hr / huvec.ttl.18hr: HUVECs; for huvec.mtl.18hr / huvec.tlps.18hr / huvec.tta.18hr / huvec.ttl.18hr / endo.mtl.18hr / endo.tlps.18hr / endo.tta.18hr / endo.ttl.18hr: tube formation; for cm.amp.avg.90min / cm.amp.cv.90min / cm.bpm.90min / cm.cam.90min / cm.decay.rise.90min / cm.mii.90min / cm.mito.90min / cm.spacing.cv.90min / cm.tc.90min / cm.amp.avg.24hrs / cm.amp.cv.24hrs / cm.bpm.24hrs / cm.cam.24hrs / cm.decay.rise.24hrs / cm.mii.24hrs / cm.mito.24hrs / cm.spacing.cv.24hrs / cm.tc.24hrs: iPSC cardiomyocytes; for endo.cyto.24hr / endo.mito.24hr / endo.mitoint.24hr / endo.nma.24hr / endo.tc.24hr / endo.mtl.18hr / endo.tlps.18hr / endo.tta.18hr / endo.ttl.18hr: iPSC endothelial cells
How it was run: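 Phenotypic readouts in iPSC-cardiomyocytes, iPSC-endothelial cells and HUVECs were normalised to 0.5% DMSO vehicle and fitted to a four-parameter logistic model. POD set at one SD cutoff of vehicle means, with 100 μM assigned when no response. PODs and physicochemical descriptors combined in ToxPi 2.0 scores.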

ryanodine receptor (RyR) = tested on: ryanodine receptor (RyR); design: method as in Wong et al. 2001, 1997; Wong and Pessah 1997; details: mechanism involving the ryanodine receptor; ref Wong et al. 2001, 1997; Wong and Pessah 1997; cited from earlier work
[2] = tested on: porcine pulmonary artery–derived EC; design: method as in Hennig et al. 2002, 2005; Toborek et al. 1995; details: ref Hennig et al. 2002, 2005, Toborek et al. 1995; cited from earlier work
zebrafish = tested on: zebrafish; design: method as in Li et al. 2014; Teixidó et al. 2019; details: ref Li et al. 2014; Teixidó et al. 2019; cited from earlier work

Structure (SMILES)	huvec.cyto.24hr [1]	huvec.mito.24hr [1]	huvec.mitoint.24hr [1]	huvec.nma.24hr [1]	huvec.tc.24hr [1]	huvec.mtl.18hr [1]	huvec.tlps.18hr [1]	huvec.tta.18hr [1]	huvec.ttl.18hr [1]	cm.amp.avg.90min [1]	cm.amp.cv.90min [1]	cm.bpm.90min [1]	cm.cam.90min [1]	cm.decay.rise.90min [1]	cm.mii.90min [1]	cm.mito.90min [1]	cm.spacing.cv.90min [1]	cm.tc.90min [1]	cm.amp.avg.24hrs [1]	cm.amp.cv.24hrs [1]	other results
Clc1ccc(-c2ccccc2)cc1 [PCB 3, 4-chlorobiphenyl]	0	0	0	0	0	0.3075	0	0.9931	0.7484	0.3083	0.6784	0.3832	0.5745	0	1	0.6328	1	0.6608	0.05114	0.2083	cm.bpm.24hrs [1]: 0.1867; cm.cam.24hrs [1]: 0.3496; cm.decay.rise.24hrs [1]: 0.3179; cm.mii.24hrs [1]: 0.587; cm.mito.24hrs [1]: 0.5833; cm.spacing.cv.24hrs [1]: 0.1653; cm.tc.24hrs [1]: 0.6127; endo.cyto.24hr [1]: 0; endo.mito.24hr [1]: 0; endo.mitoint.24hr [1]: 0; endo.nma.24hr [1]: 0; endo.tc.24hr [1]: 0; endo.mtl.18hr [1]: 0; endo.tlps.18hr [1]: 0; endo.tta.18hr [1]: 0; endo.ttl.18hr [1]: 0
Clc1cccc(-c2cccc(Cl)c2)c1 [PCB 11, 3,3′-Dichlorobiphenyl]	0.2265	0.2773	0.5099	0.3029	0.2265	0	0.1652	0	0	0.6423	0.3673	0.1538	0.6939	0.6828	0.779	0.7948	0.06972	0.7336	0.07152	0.5878	cm.bpm.24hrs [1]: 0.1537; cm.cam.24hrs [1]: 0.1401; cm.decay.rise.24hrs [1]: 0.254; cm.mii.24hrs [1]: 0.6195; cm.mito.24hrs [1]: 0.2384; cm.spacing.cv.24hrs [1]: 0.3725; cm.tc.24hrs [1]: 0.241; endo.cyto.24hr [1]: 0; endo.mito.24hr [1]: 0; endo.mitoint.24hr [1]: 0; endo.nma.24hr [1]: 0; endo.tc.24hr [1]: 0; endo.mtl.18hr [1]: 0; endo.tlps.18hr [1]: 0; endo.tta.18hr [1]: 0; endo.ttl.18hr [1]: 0
Clc1ccc(Cl)c(-c2cc(Cl)ccc2Cl)c1 [PCB 52, 2,2′,5,5′-tetrachlorobiphenyl]	0.5178	0.613	0.5572	0.3829	0.5178	0	0	0	0	0.5597	0.1687	0.3203	0.422	0.1841	0.8432	0.3815	0.1566	0.3874	0.3455	0.4979	cm.bpm.24hrs [1]: 0.3481; cm.cam.24hrs [1]: 0.3478; cm.decay.rise.24hrs [1]: 0.2921; cm.mii.24hrs [1]: 0.2822; cm.mito.24hrs [1]: 0.5634; cm.spacing.cv.24hrs [1]: 0.2305; cm.tc.24hrs [1]: 0.578; endo.cyto.24hr [1]: 0; endo.mito.24hr [1]: 0; endo.mitoint.24hr [1]: 0; endo.nma.24hr [1]: 0; endo.tc.24hr [1]: 0; endo.mtl.18hr [1]: 0.02365; endo.tlps.18hr [1]: 0; endo.tta.18hr [1]: 0; endo.ttl.18hr [1]: 0
Clc1ccc(Cl)c(-c2c(Cl)ccc(Cl)c2Cl)c1 [PCB 95, 2,2′,3,5′,6-pentachlorobiphenyl]	0.9485	1	0.5155	0.5037	0.9485	0.5568	0	0	0	0.3275	0.6707	0.7438	0.4148	0.1633	0	0.3775	0.2342	0.3895	0	0.2056	cm.bpm.24hrs [1]: 1; cm.cam.24hrs [1]: 0.3236; cm.decay.rise.24hrs [1]: 0.2316; cm.mii.24hrs [1]: 0.3974; cm.mito.24hrs [1]: 0.5198; cm.spacing.cv.24hrs [1]: 0.1862; cm.tc.24hrs [1]: 0.5603; endo.cyto.24hr [1]: 0; endo.mito.24hr [1]: 0; endo.mitoint.24hr [1]: 0; endo.nma.24hr [1]: 0; endo.tc.24hr [1]: 0; endo.mtl.18hr [1]: 0.07537; endo.tlps.18hr [1]: 0.09893; endo.tta.18hr [1]: 0.06557; endo.ttl.18hr [1]: 0.054; cellular calcium release (ryanodine receptor (RyR)): sensitizing cellular calcium release
Clc1ccc(-c2cc(Cl)c(Cl)c(Cl)c2)cc1Cl [PCB 126, 3,3′,4,4′,5-pentachlorobiphenyl]	0.3035	0	0	0	0.3035	0	0	0	0	0.3003	0	0.8534	0	1	0	0	0	0	0.3868	0.06292	EC toxicity [2]: potent inducers of EC toxicity; cm.bpm.24hrs [1]: 0.6773; cm.cam.24hrs [1]: 0.3565; cm.decay.rise.24hrs [1]: 1; cm.mii.24hrs [1]: 0; cm.mito.24hrs [1]: 0.557; cm.spacing.cv.24hrs [1]: 0.3424; cm.tc.24hrs [1]: 0.6297; endo.cyto.24hr [1]: 1; endo.mito.24hr [1]: 1; endo.mitoint.24hr [1]: 0.315; endo.nma.24hr [1]: 0; endo.tc.24hr [1]: 1; endo.mtl.18hr [1]: 0.1325; endo.tlps.18hr [1]: 0.4903; endo.tta.18hr [1]: 0.1238; endo.ttl.18hr [1]: 0.0871; cardiovascular toxicity in zebrafish (zebrafish): pericardial edema, cardiac looping defects, and circulatory failure
Clc1cc(Cl)c(-c2cc(Cl)c(Cl)cc2Cl)cc1Cl [PCB 153, 2,2′,4,4′,5,5′-hexachlorobiphenyl]	0.8978	0.5815	0.9487	0.5857	0.8978	0.3619	0.09107	0.4811	1	0.6441	0.2203	0.7602	0.6527	0.5479	0	0.6603	0.07557	0.6003	0	0.175	EC toxicity [2]: much less potent; cm.bpm.24hrs [1]: 0.4569; cm.cam.24hrs [1]: 0.2888; cm.decay.rise.24hrs [1]: 0.5277; cm.mii.24hrs [1]: 0.2429; cm.mito.24hrs [1]: 0.486; cm.spacing.cv.24hrs [1]: 0.2007; cm.tc.24hrs [1]: 0.5053; endo.cyto.24hr [1]: 0.2934; endo.mito.24hr [1]: 0.2934; endo.mitoint.24hr [1]: 1; endo.nma.24hr [1]: 0.08276; endo.tc.24hr [1]: 0.1249; endo.mtl.18hr [1]: 1; endo.tlps.18hr [1]: 0.6326; endo.tta.18hr [1]: 0.297; endo.ttl.18hr [1]: 0.4748
